Measurements from patent US12234232B2, “Aromatic heterocyclic compound with kinase inhibitory activity” (SHANGHAI ENNOVABIO PHARMACEUTICALS CO., LTD., priority 2018, dated 2025).
pIC50: −log10 of the molar value.

Legend:
JAK1 [1] = target: T1, JAK1 (Homo sapiens, UniProt P23458); test: Cellular JAK1 activity assay: IL-6-stimulated STAT3 phosphorylation in TF-1 cells; format: cell-based; set-up: endogenous in cells; host or cells: TF-1 cells (ATCC); conditions: IL-6 (30 ng/mL), pSTAT3, read-out: IC50 Cell JAK1
Procedure: (§1) In TF-1 cells, IL-6 stimulation leads to phosphorylation of STAT3 through JAK1, while EPO stimulants phosphorylation of STAT5 via JAK2.
(§2) TF-1 cells were obtained from American Type Culture Collection (ATCC). TF-1 cells were starved overnight (cell density was 100,000 cells/well at plating) in OptiMEM medium without phenol red containing 0.5% fetal bovine serum (FBS), 0.1 mM non-essential amino acids (NEAA), 1 mM sodium pyruvate at 37° C. The compound was serially diluted in DMSO, added to TF-1 cells and incubated at 37° C. for 20 minutes. The final concentration of DMSO was 0.2%. Then, human recombinant cytokine IL-6 (30 ng/mL) or EPO (10 U/mL) was added to the wells containing TF-1 cells. After the cell plate was incubated for 30 minutes, cells were lysed, and the phosphorylation of STAT3 (IL-6) or STAT5 (EPO) in the cell lysate (pSTAT3/total STAT3 Elisa Kit: CST #7300C/CST #7305C; pSTAT5 and total STAT5 Elisa Kit: Abcam #ab205715) was measured. The IC50 value was determined as the concentration of the compound required to inhibit STAT phosphorylation by 50% relative to the measured DMSO control.

JAK2 [2] = target: T2, JAK2 (Homo sapiens, UniProt O60674); test: Cellular JAK2 activity assay: EPO-stimulated STAT5 phosphorylation in TF-1 cells; format: cell-based; set-up: endogenous in cells; host or cells: TF-1 cells (ATCC); conditions: EPO (10 U/mL), pSTAT5, read-out: IC50 Cell JAK2
Procedure: as §1, §2

JAK1 [3] = target: T1, JAK1; test: In vitro JAK1 kinase activity assay (HTRF kinEASE TK); format: biochemical; set-up: purchased Thermo Fisher; conditions: 1.1 μM ATP, 60 minutes, room temperature; read-out: IC50 JAK1 (enzyme activity assay)
Procedure: (§3) Recombinant human JAK1 protein was purchased from Thermo Fisher. JAK2 and JAK3 proteins were purchased from Carna Biosciences. HTRF kinEASE TK kit was purchased from Cisbio Bioassays. BioTek microplate reader Synergy Neo 2 was used to read the plate.
(§4) The test compounds were of 4-fold serial dilution, and the final concentration ranged from 10 μM to 0.04 nM in duplicates for each concentration. The concentration of DMSO in the reaction system was 1%.
The reaction included 0.5 ng/μl JAK 1 protein kinase, 1 μM TK Substrate-biotin peptide substrate, 1.1 μM ATP, 1× enzymatic buffer, 5 mM MgCl2, 1 mM MnCl2, 1 mM DTT, and 2.5 nM SEB. The detection plate was White Proxiplate 384-Plus plate (PerkinElmer), and the mixture (10 μl) was reacted at room temperature for 60 minutes.
(§5) Reaction detection: 10 μl of detection reagent was added to the reaction plate containing final concentration of 0.125 μM of SA-XL665 and 5 μl 1×TK-Antibody. The mixture was incubated overnight at room temperature. The plate was read using Synergy Neo 2.
(§6) Data analysis: 665/620 Ratio was converted into inhibition rate (%) through the following formula: inhibition rate (%)=(Ratiomax−Ratiotest)/(Ratiomax−Ratiomin)×100%. Ratiomax is a positive control without detection compound, Ratiomin is a negative control without detection compound and kinase, Ratiotest is the detection value of each concentration of different compounds. 4 parameter curve fitting was performed to measure the IC50 (nM) values. The details are shown in, Table 1.

JAK2 [4] = target: T2, JAK2; test: In vitro JAK2 kinase activity assay (HTRF kinEASE TK); format: biochemical; set-up: purchased Carna Biosciences; conditions: 2.7 μM ATP, 25 minutes, room temperature; read-out: IC50 JAK2 (enzyme activity assay)
Procedure: as §3, §4
(§7) The reaction included 0.001 ng/μl JAK 2 protein kinase, 1 μM TK Substrate-biotin peptide substrate, 2.7 μM ATP, 1× enzymatic buffer, 5 mM MgCl2, and 1 mM DTT. The detection plate was White Proxiplate 384-Plus plate (PerkinElmer), and the mixture (10 μl) was reacted at room temperature for 25 minutes.
as §5, §6

Mouse pharmacokinetics = format: in vivo; conditions: CD-1 mice, 5 mg/kg, P.O.; for Cmax / half-life / AUC(0-t): mouse, po, plasma; for AUC(0-t): read-out: AUC0-24 hr
Procedure: Test compound was intravenously (IV) or orally (PO) administrated to CD-1 mice. Blood samples were collected at different time points as indicated below. The concentration of the compounds in the mouse plasma was determined by LC-MS/MS and related parameters were calculated. The details are as follows: the required amount of the test product was taken to prepare a solution of the required concentration for intravenous injection or oral administration. The age of the animals was about 6-8 weeks at the beginning of the dosing experiment. Blood sampling time points are 0.083 h, 0.25 h, 0.5 h, 1 h, 2 h, 4 h, 8 h and 24 h after compound administration. The Phoenix WinNonlin 7.0 software was used to calculate the pharmacokinetic parameters through the blood drug concentration data at different time points.

JAK3 protein = target: T3, JAK3 protein (Homo sapiens, UniProt P52333); test: In vitro JAK3 kinase activity assay (HTRF kinEASE TK); format: biochemical; conditions: 0.75 μM ATP, 25 minutes, room temperature; read-out: IC50 JAK3 (enzyme activity assay)
T3 construct: purchased Carna Biosciences
T3 sequence (P52333 1-1124): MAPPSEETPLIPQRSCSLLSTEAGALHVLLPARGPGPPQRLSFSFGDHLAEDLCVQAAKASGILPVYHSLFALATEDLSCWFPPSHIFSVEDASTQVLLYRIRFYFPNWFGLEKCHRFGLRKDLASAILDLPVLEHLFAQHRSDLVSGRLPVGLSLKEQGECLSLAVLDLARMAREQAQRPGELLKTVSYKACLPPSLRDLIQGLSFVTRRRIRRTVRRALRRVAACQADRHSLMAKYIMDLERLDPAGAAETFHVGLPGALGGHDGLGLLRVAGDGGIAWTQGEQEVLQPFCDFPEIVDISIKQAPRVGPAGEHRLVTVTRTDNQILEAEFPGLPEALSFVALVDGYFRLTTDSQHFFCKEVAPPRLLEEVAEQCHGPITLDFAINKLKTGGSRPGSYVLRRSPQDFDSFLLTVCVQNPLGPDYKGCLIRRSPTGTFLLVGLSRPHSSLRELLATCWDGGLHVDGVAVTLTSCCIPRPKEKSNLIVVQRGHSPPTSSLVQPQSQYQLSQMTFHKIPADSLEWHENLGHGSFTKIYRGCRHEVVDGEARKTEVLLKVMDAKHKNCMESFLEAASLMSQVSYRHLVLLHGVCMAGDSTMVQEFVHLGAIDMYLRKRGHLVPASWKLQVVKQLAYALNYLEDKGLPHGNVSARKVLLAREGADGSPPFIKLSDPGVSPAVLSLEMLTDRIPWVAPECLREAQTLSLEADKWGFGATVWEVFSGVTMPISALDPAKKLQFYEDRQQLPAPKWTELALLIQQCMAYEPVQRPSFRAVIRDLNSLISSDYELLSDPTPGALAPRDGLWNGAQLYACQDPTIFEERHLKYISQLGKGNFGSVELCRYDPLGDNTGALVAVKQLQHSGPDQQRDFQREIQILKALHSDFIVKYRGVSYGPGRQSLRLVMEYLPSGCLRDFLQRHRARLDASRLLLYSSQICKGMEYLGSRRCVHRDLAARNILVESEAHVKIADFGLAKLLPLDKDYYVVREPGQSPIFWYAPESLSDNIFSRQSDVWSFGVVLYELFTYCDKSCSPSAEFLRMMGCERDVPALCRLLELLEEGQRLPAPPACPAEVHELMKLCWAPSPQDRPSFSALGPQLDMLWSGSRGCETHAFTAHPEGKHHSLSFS
Procedure: as §3, §4
as §7, with “included […]” for “included 0.001 ng/μl”, “JAK 3” for “JAK 2”, “substrate, 0.75” for “substrate, 2.7”
as §5, §6

T2 sequence (O60674 whole entry): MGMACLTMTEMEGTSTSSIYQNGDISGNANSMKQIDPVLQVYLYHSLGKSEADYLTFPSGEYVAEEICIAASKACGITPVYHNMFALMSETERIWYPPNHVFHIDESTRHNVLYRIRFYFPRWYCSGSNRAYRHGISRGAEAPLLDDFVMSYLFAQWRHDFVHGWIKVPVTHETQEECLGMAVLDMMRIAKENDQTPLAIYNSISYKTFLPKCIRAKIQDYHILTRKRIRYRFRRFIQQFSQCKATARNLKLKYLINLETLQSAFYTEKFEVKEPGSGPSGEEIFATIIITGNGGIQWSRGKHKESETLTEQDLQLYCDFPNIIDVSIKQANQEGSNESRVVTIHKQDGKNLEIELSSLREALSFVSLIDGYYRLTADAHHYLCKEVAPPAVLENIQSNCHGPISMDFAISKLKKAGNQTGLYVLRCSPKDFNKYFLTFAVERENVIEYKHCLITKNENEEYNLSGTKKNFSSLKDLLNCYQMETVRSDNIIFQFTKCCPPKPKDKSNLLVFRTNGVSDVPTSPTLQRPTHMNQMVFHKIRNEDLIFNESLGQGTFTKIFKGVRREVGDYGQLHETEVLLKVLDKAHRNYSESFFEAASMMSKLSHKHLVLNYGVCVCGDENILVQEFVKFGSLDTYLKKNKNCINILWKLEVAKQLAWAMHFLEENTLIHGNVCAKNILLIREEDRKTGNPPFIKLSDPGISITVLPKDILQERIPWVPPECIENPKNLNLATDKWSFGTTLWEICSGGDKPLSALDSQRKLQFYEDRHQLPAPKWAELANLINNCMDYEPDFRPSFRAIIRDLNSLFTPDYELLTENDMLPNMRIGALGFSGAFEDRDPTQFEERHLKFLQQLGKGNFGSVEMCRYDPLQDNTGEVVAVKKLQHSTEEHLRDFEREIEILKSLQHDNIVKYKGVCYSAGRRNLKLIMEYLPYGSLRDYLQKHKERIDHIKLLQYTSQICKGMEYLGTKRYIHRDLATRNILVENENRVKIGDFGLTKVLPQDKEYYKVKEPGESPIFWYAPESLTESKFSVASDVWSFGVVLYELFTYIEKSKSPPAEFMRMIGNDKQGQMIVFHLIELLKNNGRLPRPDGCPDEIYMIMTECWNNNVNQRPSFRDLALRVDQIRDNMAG
T1 sequence (P23458 whole entry): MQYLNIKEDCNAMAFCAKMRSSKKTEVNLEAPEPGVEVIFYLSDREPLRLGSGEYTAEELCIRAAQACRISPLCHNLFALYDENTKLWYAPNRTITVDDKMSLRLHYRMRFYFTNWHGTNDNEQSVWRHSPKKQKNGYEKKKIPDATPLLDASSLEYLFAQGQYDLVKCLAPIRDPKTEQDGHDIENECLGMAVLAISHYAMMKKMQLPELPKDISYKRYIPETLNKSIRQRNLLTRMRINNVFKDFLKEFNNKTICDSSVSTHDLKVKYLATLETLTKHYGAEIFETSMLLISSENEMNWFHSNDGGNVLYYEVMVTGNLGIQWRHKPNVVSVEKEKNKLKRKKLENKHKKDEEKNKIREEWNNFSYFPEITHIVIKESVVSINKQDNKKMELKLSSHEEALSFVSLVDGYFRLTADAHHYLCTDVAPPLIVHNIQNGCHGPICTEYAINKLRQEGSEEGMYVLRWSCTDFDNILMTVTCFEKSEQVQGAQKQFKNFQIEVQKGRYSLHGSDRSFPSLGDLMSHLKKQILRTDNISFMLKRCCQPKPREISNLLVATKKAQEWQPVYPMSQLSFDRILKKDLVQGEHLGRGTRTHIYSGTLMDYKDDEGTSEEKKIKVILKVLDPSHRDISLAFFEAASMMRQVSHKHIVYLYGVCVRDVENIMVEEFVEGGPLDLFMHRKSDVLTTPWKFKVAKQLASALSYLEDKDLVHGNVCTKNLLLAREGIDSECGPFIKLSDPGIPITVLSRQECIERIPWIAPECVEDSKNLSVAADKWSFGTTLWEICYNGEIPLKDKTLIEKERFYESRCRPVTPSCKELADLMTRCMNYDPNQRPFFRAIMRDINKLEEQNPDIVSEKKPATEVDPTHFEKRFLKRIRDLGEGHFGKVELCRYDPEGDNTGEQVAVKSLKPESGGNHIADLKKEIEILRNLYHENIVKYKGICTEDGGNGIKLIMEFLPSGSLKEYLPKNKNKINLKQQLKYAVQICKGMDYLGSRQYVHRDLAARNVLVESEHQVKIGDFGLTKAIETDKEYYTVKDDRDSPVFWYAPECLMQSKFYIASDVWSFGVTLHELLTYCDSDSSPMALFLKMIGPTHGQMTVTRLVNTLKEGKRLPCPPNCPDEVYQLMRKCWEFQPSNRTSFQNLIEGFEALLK

Structure (SMILES) | pIC50 (JAK1 [1]) | pIC50 (JAK2 [2]) | pIC50 (JAK1 [3]) | pIC50 (JAK2 [4]) | F (Mouse pharmacokinetics) [%] | Cmax (Mouse pharmacokinetics) [ng/mL] | half-life (Mouse pharmacokinetics) [h] | AUC(0-t) (Mouse pharmacokinetics) [ng·h/mL] | pIC50 (JAK3 protein)
CCC(C(=O)Nc1nccc2c(-c3nc(Nc4cccc(S(C)(=O)=O)c4F)ncc3C)c[nH]c12)N1CCN(C)CC1 (stereo in doubt) [Example 21, (R)—N-(3-(2-((2-Fluoro-3-(methylsulfonyl)phenyl)amino)-5-methylpyrimidin-4-yl)-1H-pyrrolo[2,3-c]pyridin-7-yl)-2-(4-methylpiperazin-1-yl)butanamide] | > 7.00 | < 4.70 | > 8.30 | 5.00 to 7.00 | 97.1 | 264 | 2.61 | 1680 | 5.00 to 6.30
CC[C@H](C(=O)Nc1nccc2c(-c3nc(Nc4cccc(S(C)(=O)=O)c4F)ncc3C)c[nH]c12)N1CC2CCC(C1)N2C [Example 25, (R)—N-(3-(2-((2-Fluoro-3-(methylsulfonyl)phenyl)amino)-5-methylpyrimidin-4-yl)-1H-pyrrolo[2,3-c]pyridin-7-yl)-2-(8-methyl-3,8-diazabicyclo[3.2.1]octane-3-yl)butanamide] | 6.00 to 7.00 | < 4.70 | > 8.30 | > 7.00 | 66.1 | 155 | 3.57 | 946 | 5.00 to 6.30
CCC(C(=O)Nc1nccc2c(-c3nc(Nc4cccc(S(=O)(=O)CC)c4F)ncc3C)c[nH]c12)N1CCN(C)CC1 (centres unmarked) [Example 28] | 6.00 to 7.00 | 4.70 to 5.00 | > 8.30 | > 7.00 | – | – | – | – | 5.00 to 6.30
Cc1cnc(Nc2cccc(S(C)(=O)=O)c2F)nc1-c1c[nH]c2c(NC(=O)NC(C)C)nccc12 [Example 30, 1-(3-(2-((2-Fluoro-3-(methylsulfonyl)phenyl)amino)-5-methylpyrimidin-4-yl)-1H-pyrrolo[2,3-c]pyridin-7-yl)-3-isopropylurea] | > 7.00 | 4.70 to 5.00 | 7.30 to 8.30 | 5.00 to 7.00 | – | – | – | – | > 6.30
COCCNC(=O)Nc1nccc2c(-c3nc(Nc4cccc(S(C)(=O)=O)c4F)ncc3C)c[nH]c12 [Example 32] | < 6.00 | < 4.70 | > 8.30 | > 7.00 | – | – | – | – | > 6.30
Cc1cnc(Nc2cccc(S(C)(=O)=O)c2F)nc1-c1c[nH]c2c(NC(=O)NC(C)C)ncnc12 [Example 33] | < 6.00 | < 4.70 | 7.30 to 8.30 | 5.00 to 7.00 | – | – | – | – | > 6.30
